From PMC4467886 (Archives of biochemistry and biophysics, 2008) come the findings set out here.

Structures are written as SMILES.

The target of this assay is T1, 5,10-methenyltetrahydrofolate synthetase (MTHFS) (Mus musculus, UniProt Q9D110).
T1 sequence (Q9D110 2-203): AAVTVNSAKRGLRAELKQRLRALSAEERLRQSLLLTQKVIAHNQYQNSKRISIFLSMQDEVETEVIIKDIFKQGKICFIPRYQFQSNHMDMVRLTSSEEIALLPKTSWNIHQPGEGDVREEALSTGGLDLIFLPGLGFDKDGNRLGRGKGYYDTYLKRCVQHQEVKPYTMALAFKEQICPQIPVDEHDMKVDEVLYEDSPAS
The assay can be described thus: spectrophotometric MTHFS activity assay. It counts as biochemical.
`Nc1nc2[nH]cc(CCc3ccc(C(=O)N[C@@H](CCC(=O)O)C(=O)O)cc3)c2c(=O)[nH]1` [Pemetrexed] registered a Ki of 48 ± 11 µM.

The molecule `Nc1nc2c(c(=O)[nH]1)C[C@@H](CCc1ccc(C(=O)N[C@@H](CCC(=O)O)C(=O)O)cc1)CN2` [Lometrexol] gave a Ki of 9 ± 3 µM.

Take `Nc1nc2c(c(=O)[nH]1)C[C@@H](CCc1ccc(C(=O)N[C@@H](CCC(=O)O)C(=O)O)s1)CN2` [LY309887]: the inhibitory constant (Ki) was found to be 6 ± 1 µM.
